Data: paper PMC10998878, “Inhibition of acyl-CoA binding protein (ACBP) by means of a GABAARγ2-derived peptide” (Cell Death & Disease, 2024)
Entries after “also recorded” stand apart in the source; their conditions may differ.

How the values were obtained:
Huh-7 cells = experiment: WST-8 conversion (metabolic activation) by Huh-7 cells; assay type: cell-based, human; conditions: RecACBP/DBI pre-incubated overnight with eicosapeptide, 4 h
Experimental: Media and cell culture supplements were purchased from Gibco-Invitrogen (Carlsbad, CA, USA). Plasticware was purchased from Corning B.V. Life Sciences (Schiphol-Rijk, The Netherlands). Unless reported otherwise, the cell line used in this study was cultured at standard conditions (37 °C, 5% CO2, Dulbecco’s modified Eagle’s medium containing 10% fetal bovine serum, 10 mM HEPES buffer, 100 mg/L sodium pyruvate, 100 U/mL penicillin G sodium, and 100 µg/mL streptomycin sulfate). 2-deoxy-D-glucose (# D8375) and rotenone (# R8875) were purchased from Sigma (Burlington, MA, USA). Human hepatocellular carcinoma (Huh-7) cell line was used for in vitro experiments. Cells were plated in 6- or 96-well plates and grown for 24 h before treatments.
WST-8 conversion assays were conducted utilizing the Cell Counting Kit-8 (Sigma-Aldrich, #96992). Cells were seeded in a 96-well plate at a density of 3000 cells per well and incubated overnight for adherence. Then, the culture medium was removed, and fresh medium containing the specified treatments was added to the wells. Immediately following the addition of treatments, 10 μL of CCK-8 reagent was introduced to each well. Subsequently, the cells were incubated for 4.5 h at 37 °C to facilitate the conversion of WST-8 in response to cellular activity. Following the incubation period, the absorbance at 450 nm was quantified using a VICTOR® Nivo™ microplate reader. This measurement served as an indicator of WST-8 conversion, reflecting cellular metabolic activity.
Fig. 6 Inhibition of the metabolic effects of ACBP/DBI on hepatocytes by the GABAARγ2-derived eicosapeptide. A WST-8 conversion by murine primary hepatocytes treated with increasing concentrations of recombinant ACBP/DBI protein (RecACBP/DBI) for 4 h. Hepatocytes were isolated from tamoxifen-induced Acbp/Dbi f/f or Acbp/Dbi KO full-body genetic background mice (white- or blue-colored graphs respectively). […] For statistical analysis p values are calculated by one-way ANOVA. B WST-8 conversion by control (shUNR) and ACBP/DBI-knocked down (shACBP/DBI) human Huh-7 cells treated with increasing concentrations of RecACBP/DBI for 4 h. shUNR and shACBP/DBI cells are represented by white- or blue-colored graphs respectively. […] C WST-8 conversion by Huh-7 cells treated with RecACBP/DBI or negative control (4 h). Cells were pre-treated with 2-deoxy-D-glucose (2-Deoxy-D-glu; 300 µM) or vehicle (2 h). […] D WST-8 conversion by Huh-7 cells treated with RecACBP/DBI or negative control (4 h). Cells were pre-treated with rotenone (0.5 µM) or vehicle (2 h). […] E WST-8 conversion by Huh-7 cells treated with RecACBP/DBI or negative control (4 h). Prior to administration, RecACBP/DBI was overnight pre-incubated with monoclonal antibody (α-ACBP/DBI) or isotype IgG1. […] F WST-8 conversion by Huh-7 cells treated with RecACBP/DBI or negative control (4 h). Prior to administration, RecACBP/DBI was overnight pre-incubated with GABAARγ2 (WT or F77I-mutated) eicosapeptides.

[1] = test system: native ACBP/DBI protein (mouse liver extracts); experiment: Pull down / immunoprecipitation of native ACBP/DBI from liver extracts; assay type: binding; conditions: mouse liver protein extract (500 μg), peptide-coated beads, overnight 4 °C, immunoblot for ACBP
Experimental: The physical interaction between the native ACBP and GABAARγ2 peptides was examined by standard immunoprecipitation (IP) and immunoblotting protocols. In detail, liver protein extracts (500 μg) were immunoprecipitated on protein A/G-Sepharose beads (Merck Millipore, Burlington, MA, USA, #GE17-0618-01) coated with (1× 2× 4×) either GABAARγ2 wild type (WT) or mutated (F77I) eicosapeptide (Biosynth ltd) or its negative control (PBS). Each IP reaction was incubated overnight (4 °C) in a rotation chamber followed by three consecutive rounds of PBS washing the next day. Each washing round included a PBS resuspension of the pellet and a re-centrifugation (12,000 × g, 4 °C). Finally, beads were resuspended in 20 μL of NUPAGE 4× buffer (Life Technologies, CA, USA, #NP0008), heated at 100 °C (10 min), followed by standard immunoblotting for the ACBP protein (Abcam #ab231910).
Fig. 5 Biophysical and biochemical detection of a direct interaction between ACBP/DBI and the GABAARγ2-derived eicosapeptide. A Schematic representation of the GABAAR and the GABAARγ2-derived eicosapeptides. B Surface plasmon resonance kinetics of ACBP-GABAARγ2-derived eicosapeptide (WT and F77I) interactions. Representative ACBP immunoblot (C) from control- or GABAARγ2-immunoprecipitated samples. Anti-GABAARγ2 immunoprecipitation (IP) assay was employed in order to validate the GABAARγ2 WT peptide interaction with native ACBP (in murine hepatic protein extracts), and quantification (D). […] For statistical analysis p value (indicating statistical comparisons with the control condition) was calculated by Mann–Whitney U-test. E Anti-GABAARγ2 IP assay to address the physical interaction between GABAARγ2 peptides and murine hepatic ACBP protein. Interaction was validated using an increasing gradient of biotinylated WT/F77I peptides that were bound on the surface of streptavidin beads as part of the IP assay. […]

C57BL/6 mice = experiment: Food intake after intravenous injection; assay type: in vivo, mouse; conditions: i.v., RecACBP/DBI 0.5 mg/kg + peptide 5× molar excess (pre-incubated 16 h, 4 °C), cumulative food intake 30 min
Experimental: Prior to experimentation, mice were subjected to 24 h starvation followed by individual housing and acclimatization in individual cages (2 h). Subsequently, mice were intravenously (i.v.) injected with recombinant ACBP/DBI protein (RecACBP/DBI) (total volume of 200 μL, 0.5 mg/kg body weight), either alone or in combination with GABAARγ2 peptides (5× molar excess). Cumulative food intake was then analyzed as previously described. Prior to i.v. injections, the RecACBP mixes were pre-incubated (16 h, 4 °C) with GABAARγ2 peptides.

INMEYTIDIFFAQTWYDRRL [GABAARγ2-EP-WT] was tested, and the “inhibition of RecACBP/DBI-stimulated WST-8 conversion (eicosapeptides)” value (Huh-7 cells; n = 3) was “inhibited the ACBP/DBI-stimulated metabolic activation of Huh7 cells; also recorded: efficiently blocked the effects of recombinant human ACBP/DBI protein on human hepatocytes”, the “inhibition of RecACBP/DBI-stimulated WST-8 conversion (eicosapeptides)” value (Huh-7 cells; n = 3, listed as GABAARγ2-derived eicosapeptide) was “inhibited the metabolic activation of hepatocytes by recombinant ACBP/DBI protein in vitro” and the “pull down of endogenous/native ACBP/DBI, in words” value [1] was “efficiently interacts with native and recombinant ACBP/DBI; also recorded: able to interact with ACBP/DBI”. The “pull down of endogenous/native ACBP/DBI, in words” value ([1]; listed as GABAARγ2-derived eicosapeptide) was “validated the interaction”, the “effect on RecACBP/DBI-induced hyperphagy” value (C57BL/6 mice; n = 4 to 9) was “abolished; also recorded: efficiently blocked” and the “effect on RecACBP/DBI-induced hyperphagy” value (C57BL/6 mice; n = 4 to 9, listed as GABAARγ2-derived eicosapeptide) was “blocked appetite stimulation by recombinant ACBP/DBI in vivo”.
